# Publication PMC11833736 (ACS Pharmacology & Translational Science, 2025)
# Values joined by “and” are separate entries in the source; they are usually repeats but may differ in a detail not shown here. Identical values can stand only once.
# Columns and labels:
# [1] = cited from earlier work
# SH-SY5Y cells = experiment: Intracellular Ca content by ICP-MS, dark or green light; format: cell-based; details: for Ca uptake, Dark: kept in the dark
# Method: Six hours after compound addition, the cells were irradiated with green light or kept in the dark. Intracellular Ca^2+ levels were then assessed by ICP-MS 24 h after light activation. The NMDA and α-amino-3-hydroxy-5-methyl-4-isoxazole propionic acid (AMPA) receptors being glutamate-gated cation channels allow for an increase of calcium permeability of the neuron membrane; we also used L-glutamic acid (GA, 10 μM), a known NMDA and AMPA activator, as positive control in this assay.
# 1 mL of SH-SY5Y cells were seeded in 12-well plates (Greiner, No. 665180; 500.000 cells per well). […] After an additional 24 h of incubation, the cells were trypsined, collected, and centrifuged. The resulting cell pellet was dissolved in 1 mL of PBS and counted via a BioRad TC20 automated cell counter. Afterward, the solution was centrifuged and washed again with PBS with subsequent centrifuging two more times. The resulting cell pellet was digested in 0.5 mL of HNO3 overnight in a hot oven (90 °C). The solution was diluted with Milli-Q water to 10 mL, and the Ru and Ca content [ppb] was measured via ICP-MS.
# [2] = Stability in the dark in the presence of L-glutathione (UV-vis); format: physicochemical; details: water, 37 °C, 500 μM L-glutathione, spectra after 2 and 24 h
# Method: The synthesis and characterization of all three complexes have been described earlier and can be found in refs ([56]) and ([57]). In water or OptiMEM cell medium, the complexes were also previously found to be stable in the dark for at least 24 h at 37 °C. Upon blue or green light irradiation (λ = 452 or 517 nm), they are activated by photosubstitution of the thioether ligand to afford the aqua ruthenium complex and the free thioether ligand.[56] […] The UV–vis spectra were then recorded after 2 and 24 h separately. […] Additionally, we could not observe any color change, which is typical when one of the ligands is exchanged against another one.
# UV–vis spectroscopy experiments were performed on a Cary 60 Varian spectrometer equipped with a temperature control set to 310 K and a magnetic stirrer. The measurements were performed in a quartz cuvette containing 3 mL of solution. […] Then, the UV–vis spectrum was recorded without the presence of GSH. After 4 min, GSH was added (0.5 mM) and UV–vis spectra were recorded directly after and after 2 and 24 h, while the vial was kept in the dark and at 37 °C.
# AChE = AChE (Electrophorus electricus, UniProt O42275); details: for PI: AChE, IC50 dark / IC50 green light; for IC50: read-out: IC50,D, isolated AChE, 30 min in the dark, read 35 min after DTNB addition
# Chain of AChE (O42275 24-633): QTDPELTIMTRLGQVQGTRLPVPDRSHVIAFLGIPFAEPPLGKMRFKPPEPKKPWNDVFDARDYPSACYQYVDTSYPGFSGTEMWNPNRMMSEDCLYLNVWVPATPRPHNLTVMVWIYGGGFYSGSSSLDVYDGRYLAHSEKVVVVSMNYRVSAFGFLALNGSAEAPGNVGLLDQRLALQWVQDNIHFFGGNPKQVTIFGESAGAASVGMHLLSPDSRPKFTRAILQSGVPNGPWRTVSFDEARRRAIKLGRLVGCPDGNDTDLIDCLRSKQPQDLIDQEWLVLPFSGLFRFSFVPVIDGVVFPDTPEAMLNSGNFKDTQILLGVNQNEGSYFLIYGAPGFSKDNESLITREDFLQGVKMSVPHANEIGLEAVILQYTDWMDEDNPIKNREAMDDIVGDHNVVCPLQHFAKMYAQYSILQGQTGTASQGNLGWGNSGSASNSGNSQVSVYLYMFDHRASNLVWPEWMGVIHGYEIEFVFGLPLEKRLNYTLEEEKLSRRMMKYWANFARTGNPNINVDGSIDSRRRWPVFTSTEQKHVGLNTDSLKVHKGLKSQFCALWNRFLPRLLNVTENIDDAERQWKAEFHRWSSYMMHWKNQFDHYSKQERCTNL
# Description: Among all enzymes involved in transmembrane signaling, another important one is AChE. In a modified procedure (for further details, see the Experimental Section), we checked whether the ruthenium complexes were able to inhibit AChE in the dark and after light activation. The colorimetric assay used Ellman’s reagent. […] The conversion of 5,5′-dithiobis(2-nitrobenzoic acid) (DTNB) to yellow 2-nitro-5-thiobenzoate (TNB) initiated by the addition of acetylthiocholine was then detected by UV–vis spectroscopy every 5 min for a total time of […]. […] The solution was further diluted 1:50 in 50 mM Tris buffer, pH = 8 (10 μL in 490 μL), and then placed in 4.5 mL of 50 mM Tris buffer, pH = 8. […] 50 μL of the enzyme and 50 μL of the complex solution were added to a 96-well plate in triplicates. […] Meanwhile, a 10 mM solution of acetylthiocholine iodide and 10 mM DTNB was prepared. After the respective time, in each well, 5 μL of the acetylthiocholine iodide and DTNB mixture was added. The absorbance was read at a microplate Tecan reader at 410 nm every 5 min for in total 40 min.
SMILES,LogP [1],"Ca uptake, Dark (SH-SY5Y cells; 20 μM)","stability in the dark with GSH (UV-vis, in words) [2]",PI (AChE),IC50 (AChE),"increase of intracellular Ca^2+ content after light irradiation (SH-SY5Y cells; 10 μM, green light versus dark)","Ca uptake, Dark (SH-SY5Y cells; 10 μM)"
CSCCO.F[P-](F)(F)(F)(F)F.F[P-](F)(F)(F)(F)F.[Ru+2].c1ccc(-c2cccc(-c3ccccn3)n2)nc1.c1ccc2cc(-c3cc4ccccc4cn3)ncc2c1 [[2](PF6)2],3.08,279.12 ± 56 ng Ca/mio. cells and 279 ng Ca/mio. cells,no isosbestic points suggesting ligand exchange were observed,>1.5,> 15 µM,,
CSCCO.F[P-](F)(F)(F)(F)F.F[P-](F)(F)(F)(F)F.[Ru+2].c1ccc(-c2cccc(-c3ccccn3)n2)nc1.c1ccc2cc(Nc3cc4ccccc4cn3)ncc2c1 [[3](PF6)2],2.92,,no isosbestic points suggesting ligand exchange were observed,2,9.6 µM,3 fold,163.37 ± 93 ng Ca/mio. cells and 163 ng Ca/mio. cells
